From the NIST ThermoML archive (doi:10.1021/je501051p)

Test: mn = molality of the nth substance listed, in mol/kg
Settings: 303 K, Ring tensiometer

CCCCCCCCCCc1ccc(C(=O)[O-])cn1.[Na+] [sodium 6-decylnicotinate] + O
Settings	surface tension liquid-gas [mN/m]
m1 = 1e-05	65
m1 = 1.479e-05	63.7
m1 = 2.512e-05	62.02
m1 = 4.074e-05	59.6
m1 = 5.495e-05	58.45
m1 = 7.586e-05	56.75
m1 = 0.0001	55.75
m1 = 0.000123	54.56
m1 = 0.0001514	53.1
m1 = 0.000182	51.77
m1 = 0.0002042	50.5
m1 = 0.0002512	49.5
m1 = 0.000302	48.5
m1 = 0.0003548	47
m1 = 0.0004074	47
m1 = 0.0005012	47
m1 = 0.0006166	47
m1 = 0.0008128	46.5
m1 = 0.001	46
m1 = 0.001514	45.6
m1 = 0.002042	45
m1 = 0.002291	44.5
m1 = 0.002512	44
m1 = 0.002754	43.5
m1 = 0.00302	42.5
m1 = 0.003311	42.5
m1 = 0.003548	42.5
m1 = 0.004074	42.5
m1 = 0.005012	42.5
m1 = 0.006026	42.5

CCCCCCCCc1ccc(C(=O)[O-])cn1.[Na+] [sodium 6-octylnicotinate] + O
Settings	surface tension liquid-gas [mN/m]
m1 = 5e-05	69
m1 = 7.145e-05	68.3
m1 = 0.0001	67
m1 = 0.0001545	66
m1 = 0.0002512	64.9
m1 = 0.0003972	63.6
m1 = 0.0006397	61.8
m1 = 0.001	60
m1 = 0.0015	58.4
m1 = 0.002	57.4
m1 = 0.0025	57.4
m1 = 0.002999	57.4
m1 = 0.003999	57.4
m1 = 0.005	56
m1 = 0.006427	54.22
m1 = 0.009016	52.4
m1 = 0.01	49.5
m1 = 0.013	48
m1 = 0.015	47.5
m1 = 0.01702	45
m1 = 0.02	44
m1 = 0.025	44
m1 = 0.02999	44
m1 = 0.03499	44

CCCCCCCCCCc1ccc(C(=O)NCC(=O)[O-])cn1.[Na+] [sodium (6-decylnicotinoyl)glycinate] + O
Settings	surface tension liquid-gas [mN/m]
m1 = 1.995e-05	64.7
m1 = 2.818e-05	61.8
m1 = 4.786e-05	59.4
m1 = 5.888e-05	58.1
m1 = 8.128e-05	56.6
m1 = 0.0001148	55.2
m1 = 0.0001514	53.2
m1 = 0.0002512	52.5
m1 = 0.000302	50
m1 = 0.0005012	47
m1 = 0.0008128	46
m1 = 0.001	45
m1 = 0.001514	44
m1 = 0.002042	43
m1 = 0.002291	42
m1 = 0.002512	40.5
m1 = 0.00302	40.5
m1 = 0.003548	40.5
m1 = 0.004074	40.5
m1 = 0.005012	40.5
m1 = 0.006026	40.5
